Experiments:
human FPTase = target: T1, human FPTase (Homo sapiens, UniProt P49354+P49356); assay: In vitro inhibition of Ras farnesyl-protein transferase, human FPTase; type: biochemical; settings: 100 nM Ras-CVIM, 0.1% PEG 20,000, 10 μM ZnCl2, 30 min, concentration giving 50% inhibition of FPTase, read-out: Inhibition of RAS farnesylation IC50, human
T1 construct: made in house
Procedure: Inhibitory activity of the compounds of the instant invention may also be measured with an assay employing the recombinant human FPTase obtained as described by C. A. Omer et al. (Biochemistry, 32:5167-5176 (1993)).
Assays of farnesyl-protein transferase. Partially purified bovine FPTase and Ras peptides (Ras-CVLS, Ras-CVIM and RAS-CAIL) were prepared as described by Schaber et al. J. Biol. Chem. 265:14701-14704 (1990) and Gibbs et al. PNAS U.S.A. 86:6630-6634 (1989), respectively. Bovine FPTase was assayed in a volume of […] containing 100 mM N-(2-hydroxy ethyl) piperazine-N'-(2-ethane sulfonic acid) (HEPES), pH 7.4, 5 mM MgCl2, 5 mM dithiothreitol (DTT), […] [^3 H]-farnesyl diphosphate ([^3 H]-FPP; 740 CBq/mmol, New England Nuclear), 650 nM Ras-CVLS and 10 μg/ml FPTase at 31° C. for 60 min. Reactions were initiated with FPTase and stopped with 1 ml of 1.0M HCL in ethanol. Precipitates were collected onto filter-mats using a TomTec Mach H cell harvestor, washed with 100% ethanol, dried and counted in an LKB β-plate counter. The assay was linear with respect to both substrates, FPTase levels and time; less than 10 % of the [^3 H]-FPP was utilized during the reaction period. […] Percentage inhibition is measured by the amount of incorporation of farnesyl in the presence of the test compound when compared to the amount of incorporation in the absence of the test compound. […]

bovine FPTase = target: T2, bovine FPTase (Bos taurus, UniProt P29702+P49355); assay: In vitro inhibition of Ras farnesyl-protein transferase, partially purified bovine FPTase; type: biochemical; settings: Ras-CVLS substrate, [3H]-FPP, pH 7.4, 31° C., 60 min, concentration giving 50% inhibition of FPTase, read-out: Inhibition of RAS farnesylation IC50, bovine
T2 construct: Farnesyl-protein transferase (FPTase) from bovine brain; from tissue; host or cells: bovine brain
Procedure: The intrinsic farnesyl-protein transferase (FPTase) activity of representative compounds of this invention was measured by the assay as described below:
Farnesyl-protein transferase (FPTase) from bovine brain was chromatographed on DEAE-Sephacel (Pharmacia, 0-0.8M NaCl gradient elution), N-octyl agarose (Sigma, 0-0.6M NaCl gradient elution), and a mono Q HPLC column (Pharmacia, 0-0.3M NaCl gradient). Ras-CVLS (Cys-Val-Leu-Ser) at 3.5 mM, […] [^3 H]FPP, and the indicated compounds were incubated with this partially purified enzyme preparation. The FPTase inhibition data presented below is a measurement of the ability of the test compound to inhibit Ras farnesylation in vitro.
Assays of farnesyl-protein transferase. Partially purified bovine FPTase and Ras peptides (Ras-CVLS, Ras-CVIM and RAS-CAIL) were prepared as described by Schaber et al. J. Biol. Chem. 265:14701-14704 (1990) and Gibbs et al. PNAS U.S.A. 86:6630-6634 (1989), respectively. […] Precipitates were collected onto filter-mats using a TomTec Mach H cell harvestor, washed with 100% ethanol, dried and counted in an LKB β-plate counter. […] Percentage inhibition is measured by the amount of incorporation of farnesyl in the presence of the test compound when compared to the amount of incorporation in the absence of the test compound.

Ras farnesylation = settings: HMG-CoA reductase inhibitors, Hancock et al., Casey et al., Schafer et al.; cited from earlier work

Row | IC50 (human FPTase) [nM] | IC50 (bovine FPTase) [nM] | Structure (SMILES) | Inhibition of Ras farnesylation in vivo (Ras farnesylation)
1 | 2700 | 300 | COC(=O)C1=CC(CO)=COc2oc3cccc(O)c3c(=O)c21 [Compound 1, 7-hydroxy-3-(hydroxymethyl)-6-oxo-6H-oxepino[2,3-b][1]benzopyran-5-carboxylic acid methyl ester] | –
2 | – | 1000 | COC(=O)C1=CC(COC(C)=O)=COc2oc3cccc(OC(C)=O)c3c(=O)c21 [Compound 2, 7-acetyloxy-3-[(acetyloxy)methyl]-6-oxo-6H-oxepino[2,3-b][1]benzopyran-5-carboxylic acid methyl ester] | –
3 | – | – | CC[C@H](C)C(=O)O[C@H]1CCC=C2C=C[C@H](C)[C@H](CC[C@@H]3C[C@@H](O)CC(=O)O3)[C@H]21 [compactin] | Inhibition of Ras farnesylation in vivo has been demonstrated
4 | – | – | CC[C@H](C)C(=O)O[C@H]1C[C@@H](C)C=C2C=C[C@H](C)[C@H](CC[C@@H]3C[C@@H](O)CC(=O)O3)[C@H]21 [lovastatin] | Inhibition of Ras farnesylation in vivo has been demonstrated
